Patent US20090170813A1, “Hypophosphorous Acid Derivatives and their Therapeutical Applications” (priority 2005, published 2009)
Where two headings read alike, the source gives them in different places.

Legend:
rat mGlu4 = target: T1, rat mGlu4 (Rattus norvegicus, UniProt P31423); test: Agonist activity, [3H]phosphatidylinositol accumulation in HEK293 cells transfected with rat mGlu4 and Gqi9; format: cell-based
T1 construct: expressed in transfected cells; host or cells: HEK293
Procedure: Agonist activity of the compounds was tested on HEK293 cells transiently transfected with rat mGlu4 expressing plasmid pRKG4 and chimeric G-protein Gqi9 by electroporation, as described by Gomeza, J. et al, Mol. Pharmacol; 1996, 50, 923-930.
Cells were plated in 96-well culture plates and labeled overnight with [^3H]myoinositol. The day after, cells were washed three times with Krebs buffer, incubated for 10 min with LiCl 5 mM, and then incubated for 30 min in the absence (basal) or in the presence of the indicated compounds at 1 nM up to 1000 μM. The total amount of [^3H]phosphatidylinositol accumulated in the cells was determined after Dowex purification as previously by Goudet C, et al, Prod. Natl. Acad. Sci. USA 2004, 101, 378-383.
The response dosis curves were adjusted by using equatrier y=[(Ymax−ymin)/(1+(x/EC50)^n)]+ymin where EC50 is the concentration necessary for obtaining half of the maximal effect and n is Hill coefficient.

mGlu7 = mGlu7 (Homo sapiens, UniProt Q14831); test: Agonist activity on group III receptor mGlu7
mGlu7, sequence (Q14831 35-915): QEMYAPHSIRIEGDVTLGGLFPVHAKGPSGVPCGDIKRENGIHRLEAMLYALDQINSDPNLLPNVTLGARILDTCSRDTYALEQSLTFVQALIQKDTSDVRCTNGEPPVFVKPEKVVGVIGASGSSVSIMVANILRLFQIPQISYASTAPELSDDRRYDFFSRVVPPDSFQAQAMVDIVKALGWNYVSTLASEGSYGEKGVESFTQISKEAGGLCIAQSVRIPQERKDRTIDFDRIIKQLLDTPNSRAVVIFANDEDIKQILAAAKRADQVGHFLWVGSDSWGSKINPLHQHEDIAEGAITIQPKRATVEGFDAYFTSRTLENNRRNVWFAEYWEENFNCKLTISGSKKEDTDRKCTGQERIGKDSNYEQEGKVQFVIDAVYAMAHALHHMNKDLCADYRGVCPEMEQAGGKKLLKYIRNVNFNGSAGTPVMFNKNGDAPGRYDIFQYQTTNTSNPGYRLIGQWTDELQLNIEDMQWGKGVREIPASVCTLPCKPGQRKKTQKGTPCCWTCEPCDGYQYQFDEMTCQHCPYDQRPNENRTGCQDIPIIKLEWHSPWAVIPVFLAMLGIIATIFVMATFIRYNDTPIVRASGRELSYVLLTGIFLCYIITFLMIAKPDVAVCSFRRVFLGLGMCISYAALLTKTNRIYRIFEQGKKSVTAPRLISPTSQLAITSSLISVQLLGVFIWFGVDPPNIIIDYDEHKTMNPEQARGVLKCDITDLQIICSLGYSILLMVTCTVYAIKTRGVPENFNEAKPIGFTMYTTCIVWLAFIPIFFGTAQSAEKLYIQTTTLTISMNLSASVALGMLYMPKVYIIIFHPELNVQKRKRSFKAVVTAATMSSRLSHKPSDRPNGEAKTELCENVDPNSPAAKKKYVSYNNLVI

mGlu8 = mGlu8 (Homo sapiens, UniProt O00222); test: Agonist activity on group III receptor mGlu8
mGlu8, sequence (O00222 34-908): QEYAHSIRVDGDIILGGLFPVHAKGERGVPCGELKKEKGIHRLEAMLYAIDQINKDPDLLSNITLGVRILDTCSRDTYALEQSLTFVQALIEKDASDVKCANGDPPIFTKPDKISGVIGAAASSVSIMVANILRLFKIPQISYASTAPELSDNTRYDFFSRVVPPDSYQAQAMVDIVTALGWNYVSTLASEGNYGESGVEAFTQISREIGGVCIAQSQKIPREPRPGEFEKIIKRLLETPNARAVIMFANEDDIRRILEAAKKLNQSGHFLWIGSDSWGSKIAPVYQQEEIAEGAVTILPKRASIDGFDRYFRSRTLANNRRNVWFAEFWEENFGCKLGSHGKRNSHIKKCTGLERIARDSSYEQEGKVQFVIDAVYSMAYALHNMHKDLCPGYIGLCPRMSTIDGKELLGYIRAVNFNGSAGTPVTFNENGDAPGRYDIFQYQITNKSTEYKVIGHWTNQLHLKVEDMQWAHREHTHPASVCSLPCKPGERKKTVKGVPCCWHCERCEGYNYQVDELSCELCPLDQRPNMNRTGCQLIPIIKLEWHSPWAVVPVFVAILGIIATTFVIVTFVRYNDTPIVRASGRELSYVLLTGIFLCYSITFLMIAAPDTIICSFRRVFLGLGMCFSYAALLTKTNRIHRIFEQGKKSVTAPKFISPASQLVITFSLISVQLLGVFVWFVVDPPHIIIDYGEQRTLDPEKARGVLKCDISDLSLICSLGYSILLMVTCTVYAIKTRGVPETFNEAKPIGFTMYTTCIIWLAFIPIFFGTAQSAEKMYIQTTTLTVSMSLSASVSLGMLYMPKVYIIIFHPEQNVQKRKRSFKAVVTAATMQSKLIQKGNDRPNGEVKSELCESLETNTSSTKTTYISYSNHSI

mGlu4R [1] = target: T2, mGlu4R (Homo sapiens, UniProt Q14833); settings: background statement; read-out: EC50 as mGlu4R agonist; cited from earlier work
T2 sequence (Q14833 33-912): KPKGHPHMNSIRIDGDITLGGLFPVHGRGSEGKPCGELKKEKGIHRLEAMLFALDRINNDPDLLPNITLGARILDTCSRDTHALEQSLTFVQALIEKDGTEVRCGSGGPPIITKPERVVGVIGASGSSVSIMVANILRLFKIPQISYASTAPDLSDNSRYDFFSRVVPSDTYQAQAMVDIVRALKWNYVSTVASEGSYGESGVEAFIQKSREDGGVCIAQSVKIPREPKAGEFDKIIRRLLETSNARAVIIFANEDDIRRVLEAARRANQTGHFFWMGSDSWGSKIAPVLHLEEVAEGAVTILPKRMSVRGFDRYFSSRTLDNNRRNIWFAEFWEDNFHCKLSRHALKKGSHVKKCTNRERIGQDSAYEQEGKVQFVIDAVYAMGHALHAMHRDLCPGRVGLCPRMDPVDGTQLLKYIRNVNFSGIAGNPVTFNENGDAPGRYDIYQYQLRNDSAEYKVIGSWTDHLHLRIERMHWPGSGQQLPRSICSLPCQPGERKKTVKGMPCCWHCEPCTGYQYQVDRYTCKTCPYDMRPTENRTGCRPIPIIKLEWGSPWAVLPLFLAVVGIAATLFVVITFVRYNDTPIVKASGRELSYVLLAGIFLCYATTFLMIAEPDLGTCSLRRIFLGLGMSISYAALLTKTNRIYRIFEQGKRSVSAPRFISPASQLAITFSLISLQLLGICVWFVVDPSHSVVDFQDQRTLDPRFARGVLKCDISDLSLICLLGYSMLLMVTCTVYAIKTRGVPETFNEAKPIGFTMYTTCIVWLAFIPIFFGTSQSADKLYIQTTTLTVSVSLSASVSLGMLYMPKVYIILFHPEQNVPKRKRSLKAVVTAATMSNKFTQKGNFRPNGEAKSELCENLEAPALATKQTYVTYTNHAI

mGlu4R [2] = target: T2, mGlu4R; settings: background statement; read-out: IC50 as competitive antagonist; cited from earlier work
[3] = Table 1, mean ± spread (n), read-out: EC50 mGlu4
[4] = Table 2, n in brackets, read-out: mGlu4 EC50 μM (n)

T1 sequence (P31423 33-912): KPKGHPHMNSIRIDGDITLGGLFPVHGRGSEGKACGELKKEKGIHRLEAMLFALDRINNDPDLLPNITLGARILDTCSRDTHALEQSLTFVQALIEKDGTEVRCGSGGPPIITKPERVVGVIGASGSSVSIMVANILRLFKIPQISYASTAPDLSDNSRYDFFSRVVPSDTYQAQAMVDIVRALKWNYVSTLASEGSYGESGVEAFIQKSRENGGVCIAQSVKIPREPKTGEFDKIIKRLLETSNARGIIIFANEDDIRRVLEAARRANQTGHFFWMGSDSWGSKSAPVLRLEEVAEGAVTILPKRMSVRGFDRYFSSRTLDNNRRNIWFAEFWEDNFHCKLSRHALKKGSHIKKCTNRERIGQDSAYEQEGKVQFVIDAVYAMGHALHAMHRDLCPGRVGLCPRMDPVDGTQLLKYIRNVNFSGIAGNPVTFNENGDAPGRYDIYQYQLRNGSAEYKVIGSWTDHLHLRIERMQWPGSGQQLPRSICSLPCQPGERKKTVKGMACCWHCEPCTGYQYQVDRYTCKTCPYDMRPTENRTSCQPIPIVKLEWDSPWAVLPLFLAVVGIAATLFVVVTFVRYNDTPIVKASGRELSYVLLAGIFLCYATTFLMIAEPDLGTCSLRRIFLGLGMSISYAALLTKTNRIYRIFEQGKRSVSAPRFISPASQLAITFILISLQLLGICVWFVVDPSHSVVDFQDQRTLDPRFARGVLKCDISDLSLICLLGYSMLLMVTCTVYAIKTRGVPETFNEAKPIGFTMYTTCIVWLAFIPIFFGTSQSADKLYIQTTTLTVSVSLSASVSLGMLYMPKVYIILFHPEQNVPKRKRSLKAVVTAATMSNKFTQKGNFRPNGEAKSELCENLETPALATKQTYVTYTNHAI

Compound	EC50 (rat mGlu4; [4]) [µM]	further results
NC(CCP(=O)(O)CCC(=O)O)C(=O)O (racemic) [Compound 4, 3-[((3-Amino-3-carboxy)propyl)(hydroxy)phosphinyl]propanoic Acid]	7.1	EC50 (rat mGlu4; [3]): 6.6 ± 2.8 µM; EC50 (mGlu7): > 1000 µM; EC50 (mGlu8): 24.2 ± 9 µM
N[C@H](CCP(=O)(O)CCC(=O)O)C(=O)O [(3R)-PCEP, 3-amino-carboxy-propyl-2′-carboxy-ethylphosphinic acid, reference compound]	–	EC50 (rat mGlu4; [3]): 24.2 ± 7.6 µM; EC50 (mGlu7; read-out: EC50 mGlu7, Table 1): > 1000 µM; EC50 (mGlu8; read-out: EC50 mGlu8, Table 1, mean ± spread (n)): 58.2 ± 8.8 µM
N[C@@H](CCP(=O)(O)C(O)c1cccc([N+](=O)[O-])c1O)C(=O)O (stereo partly drawn) [Compound 78, (3S)-3-[(((3-amino-3-carboxy)propyl)(hydroxy)phosphinyl)-hydroxymethyl] 2-hydroxy-nitrobenzene]	15.2	–
N[C@@H](CCP(=O)(O)C(O)c1c(F)c(F)c(F)c(F)c1F)C(=O)O (stereo partly drawn) [Compound 80, (3S)-1-[(((3-amino-3-carboxy)propyl)(hydroxy)phosphinyl)-hydroxymethyl] 2,3,4,5,6-pentafluorobenzene]	5.19	–
N[C@@H](CCP(=O)(O)C(O)c1cc([N+](=O)[O-])ccc1O)C(=O)O (stereo partly drawn) [Compound 82, (3S)-3-[(((3-amino-3-carboxy)propyl)(hydroxy)phosphinyl)-hydroxymethyl] 4-hydroxy-nitrobenzene]	1.17	–
N[C@@H](CCP(=O)(O)C(O)c1ccc([N+](=O)[O-])o1)C(=O)O (stereo partly drawn) [Compound 84, (3S)-2-[(((3-amino-3-carboxy)propyl)(hydroxy)phosphinyl)-hydroxymethyl] 5-nitrofuran]	0.087	–
N[C@@H](CCP(=O)(O)C(O)c1ccc([N+](=O)[O-])s1)C(=O)O (stereo partly drawn) [Compound 86, (3S)-2-[(((3-amino-3-carboxy)propyl)(hydroxy)phosphinyl)-hydroxymethyl] 5-nitrothiophene]	0.31	–
N[C@@H](CCP(=O)(O)C(O)c1ccc(C(F)(F)F)o1)C(=O)O (stereo partly drawn) [Compound 88, (3S)-2-[(((3-amino-3-carboxy)propyl)(hydroxy)phosphinyl)-hydroxymethyl] 5-trifluoromethylfuran]	1.98	–
N[C@@H](CCP(=O)(O)C(O)c1c([N+](=O)[O-])cccc1[N+](=O)[O-])C(=O)O (stereo partly drawn) [Compound 90, (3S)-2-[(((3-amino-3-carboxy)propyl)(hydroxy)phosphinyl)-hydroxymethyl] 1,3-dinitro benzene]	1.96	–
N[C@@H](CCP(=O)(O)C(O)c1ccc([N+](=O)[O-])c(C(F)(F)F)c1)C(=O)O (stereo partly drawn) [Compound 94, (3S)-4-[(((3-amino-3-carboxy)propyl)(hydroxy)phosphinyl)-hydroxymethyl] 2-trifluoro methyl-1-nitrobenzene]	0.305	–
N[C@@H](CCP(=O)(O)C(O)c1cc([N+](=O)[O-])cc([N+](=O)[O-])c1)C(=O)O (stereo partly drawn) [Compound 97, (3S)-3-[(((3-amino-3-carboxy)propyl)(hydroxy)phosphinyl)-hydroxymethyl] 1,5-dinitrobenzene]	0.81	–
NC(CCP(=O)(O)O)C(=O)O [L-AP4]	–	EC50 (mGlu4R [1]): 0.32 µM
CC(N)(CCP(=O)(O)O)C(=O)O (stereo not drawn) [α-methyl analogue]	–	IC50 (mGlu4R [2]): 100 µM
